Assays:
Experiment in all cases: Herbicidal effect by foliage and soil treatment
Assay type in all cases: in vivo
Details in all cases: 10 g ai/10a, evaluated after 14 days
[1] = test system: black nightshade (Solanum nigrum)
Summary of the method: (§1)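 Greenhouse pot test at 19–25 °C: spray of aqueous Tween 20 formulation onto foliage and soil of seedlings at cotyledonal–bifoliate stage, dose per area predetermined. Scoring on a rating scale after 14 days versus untreated.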

[2] = test system: common blackjack (Bidens pilosa)
Summary of the method: as §1

[3] = test system: sicklepod (Cassia obtusifolia)
Summary of the method: as §1

[4] = test system: ivyleafspeedwell (Veronica hederaefolia)
Summary of the method: as §1

[5] = test system: wild chamomile (Matricaria chamomilla)
Summary of the method: as §1

[6] = test system: cleavers (Galium aparine)
Summary of the method: as §1

[7] = test system: kediock (Sinapis arvensis)
Summary of the method: as §1

[8] = test system: velvetleaf (Abutilon theophrasti)
Summary of the method: as §1

[9] = test system: redroot pigweed (Amaranthus retroflexus)
Summary of the method: as §1

[10] = test system: field bindweed (Convolvulus arvensis)
Summary of the method: as §1

[11] = test system: common chickweed (Stellaria media)
Summary of the method: as §1

Compound	herbicidal activity rating, SN (Solanum nigrum) [1]	herbicidal activity rating, BP (Bidens pilosa) [2]	herbicidal activity rating, CO (Cassia obtusifolia) [3]	herbicidal activity rating, VH (Veronica hederaefolia) [4]	herbicidal activity rating, MC (Matricaria chamomilla) [5]	herbicidal activity rating, GA (Galium aparine) [6]	herbicidal activity rating, SA (Sinapis arvensis) [7]	herbicidal activity rating, AT (Abutilon theophrasti) [8]	herbicidal activity rating, AR (Amaranthus retroflexus) [9]	herbicidal activity rating, CA (Convolvulus arvensis) [10]	herbicidal activity rating, SM (Stellaria media) [11]
COc1cc(Oc2cccc(C(F)(F)F)c2)nc(C(=O)NCCC#N)c1 [Compound I-71]	5 (percentage of weeds killed was not less than 80%)	5 (percentage of weeds killed was not less than 80%)	5 (percentage of weeds killed was not less than 80%)	5 (percentage of weeds killed was not less than 80%)	4 (percentage of weeds killed was not less than 60% and less than 80%)	5 (percentage of weeds killed was not less than 80%)	5 (percentage of weeds killed was not less than 80%)	4 (percentage of weeds killed was not less than 60% and less than 80%)	5 (percentage of weeds killed was not less than 80%)	5 (percentage of weeds killed was not less than 80%)	5 (percentage of weeds killed was not less than 80%)
COc1cc(Oc2cccc(C(F)(F)F)c2)nc(C(=O)NC(OC)C(F)(F)F)c1 (stereo not drawn) [Compound I-88, N-(1-methoxy-2,2,2-trifluoroethyl)-4-methoxy-6-{3-(trifluoromethyl)phenoxy}-2-pyridine carboxamide]	5 (percentage of weeds killed was not less than 80%)	3 (percentage of weeds killed was not less than 40% and less than 60%)	5 (percentage of weeds killed was not less than 80%)	5 (percentage of weeds killed was not less than 80%)	2 (percentage of weeds killed was not less than 20% and less than 40%)	5 (percentage of weeds killed was not less than 80%)	5 (percentage of weeds killed was not less than 80%)	5 (percentage of weeds killed was not less than 80%)	5 (percentage of weeds killed was not less than 80%)	5 (percentage of weeds killed was not less than 80%)	5 (percentage of weeds killed was not less than 80%)
CCCONC(=O)c1cc(OC)cc(Oc2cccc(C(F)(F)F)c2)n1 [Compound I-99, N-(n-propoxy)-4-methoxy-6-{3-(trifluoromethyl)phenoxy}-2-pyridine carboxamide]	5 (percentage of weeds killed was not less than 80%)	5 (percentage of weeds killed was not less than 80%)	5 (percentage of weeds killed was not less than 80%)	5 (percentage of weeds killed was not less than 80%)	4 (percentage of weeds killed was not less than 60% and less than 80%)	5 (percentage of weeds killed was not less than 80%)	5 (percentage of weeds killed was not less than 80%)	5 (percentage of weeds killed was not less than 80%)	5 (percentage of weeds killed was not less than 80%)	5 (percentage of weeds killed was not less than 80%)	5 (percentage of weeds killed was not less than 80%)

Reference: patent US6339045B1, “N-(unsubstituted or substituted)-4-substituted-6-(unsubstituted or substituted)phenoxy-2-pyridinecarboxamides or thiocarboxamides, processes for producing the same, and herbicides” (Kureha Kagaku Kogyo Kabushiki Kaisha, priority 1995, dated 2002)
